Here are results for two compounds from US4725578A, “Compounds having therapeutic effect and the preparation thereof” (Tobishi Pharmaceutical Co., Ltd., priority 1986, dated 1988).

One series deals with P-388 cells. Briefly: Antineoplastic action against implanted P-388 cells (ip-ip), survival T/C. It is filed as in vivo, CDFl mice. As to conditions: for T/C % (Treatment/Control %): Table 6, P388, intraperitoneal. The method, then:
To the peritoneal cavity of each group of mice consisting of six CDFl mice per group, 10^6 /0.1 ml of P-388 cells or 10^5 /0.1 ml of L-1210 cells were implanted. […]
In the Table, the symbol T/C % means Treatment/Control %, that is the increase in life when the control is 100. […] This method is used in the screening of U.S. National Cancer Institute.
(§1) In Table 7, the symbol "i.P.-i.P." means that the tumor cells are implanted intraperitoneally and the compounds being tested are also administered intraperitoneally. The symbol "TR" is the therapeutic ratio obtained by dividing the dose which provides a maximum T/C value, by the dose which provides a minimum T/C value.

The next series relates to L-1210 cells. Kind of series: Antineoplastic action against implanted L-1210 cells (ip-ip), survival T/C. It is filed as in vivo, CDFl mice. The method, then: In this animal test, the antineoplastic action against the implanted tumor was examined in lower animals, in vivo, in respect of the compounds according to the present invention, by using CDFl mice.
To the peritoneal cavity of each group of mice consisting of six CDFl mice per group, 10^6 /0.1 ml of P-388 cells or 10^5 /0.1 ml of L-1210 cells were implanted. […] While to the control groups of CDFl mice, P-388 and L-1210 cells were implanted in the same manner and they were bred without administration of the compounds.
(§2) In the Table, the symbol T/C % means Treatment/Control %, that is the increase in life when the control is 100. The values are obtained by implanting tumor cells to groups of mice (or rats), administering the compound being tested in various amounts every 24 hours after the implantation of the tumor cells and then calculating the ratio, the median survival time of the group to which the compound has been administered to the survival of the control, multiplied by a factor of 100. This method is used in the screening of U.S. National Cancer Institute.
as §1

Another series deals with B-16 melanoma. Kind of series: B16 melanoma (ip-ip), survival T/C. It counts as in vivo, mice. The method, then:
(§3) In the Table, the symbol T/C % means Treatment/Control %, that is the increase in life when the control is 100. The values are obtained by implanting tumor cells to groups of mice (or rats), administering the compound being tested in various amounts every 24 hours after the implantation of the tumor cells and then calculating the ratio, the median survival time of the group to which the compound has been administered to the survival of the control, multiplied by a factor of 100. This method is used in the screening of U.S. National Cancer Institute. […]
as §1

Another series deals with MM2. Kind of series: MM2 (ip-ip), survival T/C. As to conditions: for T/C / mice living more than 60 days (60<): additional tests, MM2 (ip-ip). It is filed as in vivo, mice. The method, then:
as §3, §1
The term in Table 7, last column "3/6 60<", means that 3 mice out of 6 mice continue to live more than 60 days after the implantation of the tumor cells.

The nature of series [1]: Toxicity test, lethal dose (Litchfield-Wilcoxon). It counts as in vivo, male 4-weeks CD-1 (ICR) mice. As to conditions: suspension in 0.5% CMC, 7 days observation. The method, then: With respect to the compounds of this invention, the lethal dose was determined as follows.
By using male 4-weeks CD-1 (ICR) mice consisting of 5 to 10 mice per group, the desired amount of each compound of this invention was suspended in 0.5% CMC solution and the resultant suspension was administered to each mouse intraperitoneally or intravenously. Observing the life or death as well as the general symptome during 7 days after the administration of the compounds, the value of LD50 for each compounds was estimated from the lethal population observed on the basis of the Litchfield-Wilcoxon method.

In series [2] the test system is P 388. Kind of series: P 388 (ip-iv), survival T/C. It counts as in vivo, mice. The method, then: as §2
(§4) In Table 9, "iv" and "sc" means that the administration of the compounds is carried out intravenously and the implantation of the tumor cells is carried out subcutaneously.

Another series deals with Colon 26. Kind of series: Colon 26 (ip-ip), survival T/C. It counts as in vivo. The method, then: as §2
The subject of another series is Erlich carcinoma. Briefly: Erlich carcinoma (sc-ip), inhibition. It is filed as in vivo. As to conditions: 2 mg/kg × 11, after 14 days.
The subject of the next series is Lewis Lung Carcinoma. Briefly: Lewis Lung Carcinoma (sc-ip), inhibition. It counts as in vivo. As to conditions: 4 mg/kg × 11, after 17 days.
The test system of another series is Colon. 38. Kind of series: Colon. 38 (sc-ip), inhibition. It is filed as in vivo. As to conditions: 4 mg/kg × 11, after 17 days.
Series [3] can be described thus: Neuropharmacological multidimentional observation (modified Arwin and Smith method). It is filed as in vivo, 4-weeks CD-1 (IRC) mice. As to conditions: intraperitoneal, 1 to 20 mg/kg, observed every 30 minutes for 180 minutes, compared with patterns of known medicines. The method, then:
In this test, other pharmacological effects which may be obtained by these compounds were investigated.
Each compound of the invention was intraperitoneally administered to 4-weeks CD-1 (IRC) mice (Nippon Charles Liver K.K.) in the dose of 1 to 20 mg/kg with using mice groups consisting of three mice per group. […] The observation was carried out according to the modified Arwin method and Smith method, i.e., neuropharmacological multidimentional observation method.
Making a comparison between the symptom observed and the pattern of the pharmacological action due to the known medicines, it has been discovered that each compound of the invention has the following pharmacological effect.

In series [4] the test system is P 388. Kind of series: P 388 (sc-iv), survival T/C. It counts as in vivo, mice. The method, then:
as §2, §4

“Also recorded” adds a separate entry of the source.

For the compound `COc1ccc(C[C@H]2C(=O)N[C@@H](C)C(=O)N(C)[C@H]3Cc4ccc(cc4)Oc4cc(ccc4OC)C[C@@H](C(=O)N[C@H](C)C(=O)N[C@@H](C)C(=O)N2C)N(C)C3=O)cc1` [Methylether of TPC-A], the “T/C % (Treatment/Control %)” value turned out to be 130.1% in the series with P-388 cells (dose 0.01 mg/kg (printed in the 0.05 column with note "dose, 0.01")); 156.7% in the series with P-388 cells (dose 0.5 mg/kg); 164.2% in the series on P-388 cells (dose 2 mg/kg); 173.6% in the series with P-388 cells (dose 4 mg/kg). In addition, the “P388 (i.P. - i.P.) T/C (%)” value in the series on P-388 cells (Table 7, dose 0.01 mg/kg) is given as 130.1%; with P-388 cells (Table 7, dose 0.5 mg/kg) it was 156.7%; in the series on P-388 cells (Table 7, dose 1 mg/kg), 159.9%; in the series on P-388 cells (Table 7, dose 2 mg/kg), 164.2%; in the series on P-388 cells (Table 7, dose 4 mg/kg) it was 173.6%. Further, the “L1210 (i.P. - i.P.) T/C (%)” value in the series with L-1210 cells (Table 7, dose 0.01 mg/kg) amounted to 105.6%; with L-1210 cells (Table 7, dose 0.5 mg/kg) it was 118.6%; in the series on L-1210 cells (Table 7, dose 1 mg/kg), 120.7%; with L-1210 cells (Table 7, dose 2 mg/kg) it was 129.3%; in the series on L-1210 cells (Table 7, dose 5 mg/kg), 137.3%. Besides, the “B16 (i.P. - i.P.) T/C (%)” value came out at 133.8% in the series with B-16 melanoma (Table 7, dose 0.25 mg/kg); 135.3% in the series on B-16 melanoma (Table 7, dose 1 mg/kg); 139.1% in the series on B-16 melanoma (Table 7, dose 2 mg/kg); 143.0% with B-16 melanoma (Table 7, dose 4 mg/kg). The “MM2 (i.P. - i.P.) T/C (%)” value worked out at 103.1% with MM2 (Table 7, dose 0.2 mg/kg); 103.1% with MM2 (Table 7, dose 1 mg/kg); 118.4% in the series with MM2 (Table 7, dose 2 mg/kg); 90.8% with MM2 (Table 7, dose 5 mg/kg). The “LD50 and 95% Confidence Limit” value is listed as 10.0(7.0-14.3) mg/kg in series [1] (intraperitoneal) and 16.5(12.6-21.5) mg/kg in series [1] (intravenous). In addition, the T/C (usually the ratio of treated to control) turned out to be 115.7% in the series on P 388 [2] (0.56 mg/kg × 9); 160.8% in the series with P 388 [2] (2.22 mg/kg × 9); 113.6% with Colon 26 (1 mg/kg × 9); 125.0% with Colon 26 (2 mg/kg × 9); 125.9% with Colon 26 (4 mg/kg × 9). For the same compound, the Inhibition (in general, how much of the control response was suppressed) came to 60.5% in the series with Erlich carcinoma, 51.1% in the series with Lewis Lung Carcinoma and 70.1% with Colon. 38. Also, the Pharmacological effect estinated entry in series [3] is “emetic action; also recorded: anorexigenic action”.

With `COc1ccc(C[C@H]2C(=O)N[C@H](C)C(=O)N(C)[C@@H]3Cc4ccc(cc4)Oc4cc(ccc4O)C[C@H](C(=O)N[C@@H](C)C(=O)N[C@@H](C)C(=O)N2C)N(C)C3=O)cc1.COc1ccc(C[C@H]2C(=O)N[C@H](C)C(=O)N(C)[C@@H]3Cc4ccc(cc4)Oc4cc(ccc4O)C[C@H](C(=O)N[C@@H](C)C(=O)N[C@@H](C)C(=O)N2C)N(C)C3=O)cc1.COc1ccc(C[C@H]2C(=O)N[C@H](C)C(=O)N(C)[C@@H]3Cc4ccc(cc4)Oc4cc(ccc4O)C[C@H](C(=O)N[C@@H](C)C(=O)N[C@@H](C)C(=O)N2C)N(C)C3=O)cc1.COc1ccc(C[C@H]2C(=O)N[C@H](C)C(=O)N(C)[C@@H]3Cc4ccc(cc4)Oc4cc(ccc4O)C[C@H](C(=O)N[C@@H](C)C(=O)N[C@@H](C)C(=O)N2C)N(C)C3=O)cc1.O.O.O.O.O` [TPC-A], the “T/C % (Treatment/Control %)” value in the series on P-388 cells (dose 10 mg/kg) is given as 187.4%. Besides, the T/C in the series on MM2 (2.78 mg/kg × 9) was 138.7%; in the series on MM2 (5.56 mg/kg × 9) it was 231.2%; in the series on MM2 (6.94 mg/kg × 9), 184.3%; with P 388 [2] (5.56 mg/kg × 9), 121.4%; in the series with P 388 [4] (5 mg/kg × 7), 179.6%; with P 388 [4] (7 mg/kg × 7) it was 153.7%. The compound further had a T/C with P 388 [4] (10 mg/kg × 7) of 127.8%. Besides, the “mice living more than 60 days (60<)” value was 2/6 with MM2 (5.56 mg/kg × 9), 1/7 in the series on MM2 (6.94 mg/kg × 9), 2/7 in the series with P 388 [4] (5 mg/kg × 7) and 1/7 with P 388 [4] (7 mg/kg × 7). The “LD50 and 95% Confidence Limit” value in [1] (intravenous) is recorded as 34.0(28.1-41.2) mg/kg. In addition, in series [3], the Pharmacological effect estinated entry is listed as “emetic action; also recorded: anorexigenic action; also recorded: psychotropic action; also recorded: vasoconstrictive; also recorded: papaverine action; also recorded: antiper-”.
